Test results as given in PMC3415135 (Evidence-based Complementary and Alternative Medicine : eCAM, 2012).
In brackets after ≈: the same amount, converted by molar mass.

Key:
Type in all cases: biochemical
COX-2 (cyclooxygenase-2) = target: T1, COX-2 (cyclooxygenase-2); assay: enzyme inhibition, Cayman kit; details: per manufacturer's instructions
T1 construct: gene PTGS2; commercial, Cayman Chemical
Excerpt: enzyme inhibition, Cayman kit on COX-2 (cyclooxygenase-2)

[1] = target: T2, HGVPLA2 (human group V PLA2) (Homo sapiens, UniProt P39877); assay: enzyme inhibition, Cayman kit
T2 construct: gene PLA2G5; commercial assay, Cayman Chemical
T2 sequence (P39877 21-138): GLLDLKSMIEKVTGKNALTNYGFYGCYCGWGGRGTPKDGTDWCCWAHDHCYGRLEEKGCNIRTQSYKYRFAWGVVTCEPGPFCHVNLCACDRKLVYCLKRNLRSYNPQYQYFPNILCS
Excerpt: enzyme inhibition, Cayman kit on HGVPLA2 (human group V PLA2)

[2] = target: T3, BPPLA2 (bovine pancreas PLA2) (Bos taurus, UniProt P00593); assay: enzyme inhibition, Cayman kit
T3 construct: gene PLA2G1B; native pancreatic enzyme, purchased from Sigma-Aldrich
T3 sequence (P00593 23-145): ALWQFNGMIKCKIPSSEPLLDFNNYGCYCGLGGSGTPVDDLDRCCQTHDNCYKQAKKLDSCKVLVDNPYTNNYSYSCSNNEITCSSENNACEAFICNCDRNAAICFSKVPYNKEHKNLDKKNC
Excerpt: enzyme inhibition, Cayman kit on BPPLA2 (bovine pancreas PLA2)

[3] = target: T4, LOX 15HRC (Lipoxygenase 15hrc); assay: enzyme inhibition, Cayman kit; details: per manufacturer's instructions
T4 construct: gene ALOX15; commercial, Cayman Chemical
Excerpt: enzyme inhibition, Cayman kit on LOX 15HRC (Lipoxygenase 15hrc)

Apis = Apis (Apis mellifera, UniProt P00630)
Sequence of Apis (P00630 34-167 limits assumed): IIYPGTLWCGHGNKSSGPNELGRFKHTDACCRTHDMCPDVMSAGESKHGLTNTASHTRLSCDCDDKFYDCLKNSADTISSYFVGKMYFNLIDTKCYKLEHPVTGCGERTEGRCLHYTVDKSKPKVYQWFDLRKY

Compound	IC50 (COX-2 (cyclooxygenase-2)) [µg/mL]	IC50 [1] [µM]	IC50 [2] [µM]	IC50 [3] [µg/mL]	hydrolysis, A425 (Apis)
CC1(C)Oc2cc3occ(-c4ccc5c(c4)OCO5)c(=O)c3c(O)c2C[C@H]1O [harpalycin 2]	32.73 (≈ 85.6 µM)	71.7	31.1	55.96 (≈ 146 µM)	–
CCCCCCCC(=O)Oc1cc(C(=O)O)ccc1[N+](=O)[O-] [4-nitro-3-octanoyloxy-benzoic acid]	–	–	–	–	as a direct result of the cleavage of the synthetic substrate
